Measured values published in patent publication EP2799881A1, “Method for the determination of the presence of an antibiotic in a fluid” (DSM IP Assets B.V., priority 2013, dated 2014).

Test system: test organism
Experiment: Microbial growth inhibition test (DSM Delvotest® SP-NT), detection limit of antibiotics in spiked milk, with tomatidine added to the test medium
Format: cell-based
Details: 64 °C
Protocol: As a reference, a commercially available test system without any added steroidal glycoalkaloid aglycone (DSM Delvotest® SP-NT, plates containing 8 x 12 test wells) was used. In addition, four different test systems were prepared by modifying the reference test by adding the steroidal glycoalkaloid aglycone tomatidine to the test medium in a final concentration of 50 ppb, 100 ppb, 500 ppb or 2000 ppb. The detection limits of two different antibiotics were measured in the reference test and in the tests with modified medium containing different concentrations of tomatidine. The antibiotics that were measured were streptomycin and dihydrostreptomycin (DH-streptomycin) (both belonging to the aminoglycoside antibiotic family). Five different concentrations of each antibiotic (see Table 1) were measured. Hundred microliter antibiotic-free milk or hundred microliter milk spiked with the respective concentrations of antibiotic was added to the test medium (170 µl) and incubated at 64 °C in a water bath. The tests were visually determined at the point in time where a sample without antibiotic had changed colour from purple to yellow. At this point, the plates were cooled in an ice bath for 5 minutes. The cooled plates were scanned on a Delvo® scanner. The colour of each well was expressed as a Z-value; a purple colour gives rise to a positive Z-value, while a yellow colour has a negative Z-value. The Z-value of test results with samples without antibiotic is typically -5 < Z < -10. Detailed description of the scanning technology and the expression of the colour in Z-values are described in WO 03/033728. For the determination of the detection limit for each antibiotic, a dose-response function (Z-value versus concentration of antibiotic) was constructed. The detection limit is defined as the antibiotic concentration where the S-shaped dose-response function has a Z-value equal to the cut-off value.

[1] = Tomatidine concentration in test 0 ppb (reference Delvotest® SP-NT), cut-off Z-value 0
[2] = Tomatidine concentration in test 50 ppb, cut-off Z-value 0, tomatidine 50 ppb in test
[3] = Tomatidine concentration in test 100 ppb, cut-off Z-value 0, tomatidine 100 ppb in test
[4] = Tomatidine concentration in test 500 ppb, cut-off Z-value 0, tomatidine 500 ppb in test
[5] = Tomatidine concentration in test 2000 ppb, cut-off Z-value 0, tomatidine 2000 ppb in test

SMILES	Detection limit [1]	Detection limit [2]	Detection limit [3]	Detection limit [4]	Detection limit [5]
CN[C@@H]1[C@H](O[C@H]2[C@H](O[C@H]3[C@H](O)[C@@H](O)[C@H](NC(=N)N)[C@@H](O)[C@@H]3NC(=N)N)O[C@@H](C)[C@]2(O)CO)O[C@@H](CO)[C@H](O)[C@H]1O [DH-streptomycin, dihydrostreptomycin]	1471 ppb	1075 ppb	365 ppb	150 ppb	115 ppb
[H]/N=C(/N)N[C@H]1[C@H](O)[C@@H](O)[C@H](O[C@@H]2O[C@@H](C)[C@](O)(C=O)[C@H]2O[C@@H]2O[C@@H](CO)[C@H](O)[C@@H](O)[C@@H]2NC)[C@@H](N/C(N)=N\[H])[C@@H]1O [Streptomycin, streptomycin]	2005 ppb	1523 ppb	398 ppb	295 ppb	79 ppb
